Test results published in patent US5254584A, “N-acetonylbenzamides and their use as fungicides” (Rohm and Haas Company, priority 1992, dated 1993).
Values after ≈ are worked out from the molar mass of the structure shown.

Experiments:
tomato plants = test: In vivo phytotoxic activity, foliar spray, tomato; set-up: key: +: indicating presence of a plant growth regulatory effect as compared to a control to which a solvent mixture (acetone/water/methanol) lacking the test compound was applied; 0: A zero indicates no apparent effect; conditions: foliar spray 2200 g/Ha, seven days after application
Description: (§1) The compounds of Examples 1 and 12 were tested in vivo for phytotoxic activity by applying the compounds to the foliage of cucumber, tomato, bean, lettuce and strawberry plants as a spray at a rate of 2200 g/Ha. The plants were evaluated seven days after spray application of the compounds.
(§2) Phototoxicity scores are set forth below in Table 6. The phytotoxicity scores use a symbol, "+", indicating presence of a plant growth regulatory effect as compared to a control to which a solvent mixture (acetone/water/methanol) lacking the test compound was applied. A zero indicates no apparent effect. Each score is a composite representing the mode value for three replicate plants.

bean plants = test: In vivo phytotoxic activity, foliar spray, bean; set-up: key: +: indicating presence of a plant growth regulatory effect as compared to a control to which a solvent mixture (acetone/water/methanol) lacking the test compound was applied; 0: A zero indicates no apparent effect; conditions: foliar spray 2200 g/Ha, seven days after application
Description: as §1, §2

lettuce plants = test: In vivo phytotoxic activity, foliar spray, lettuce; set-up: key: +: indicating presence of a plant growth regulatory effect as compared to a control to which a solvent mixture (acetone/water/methanol) lacking the test compound was applied; 0: A zero indicates no apparent effect; conditions: foliar spray 2200 g/Ha, seven days after application
Description: as §1, §2

Cercospora beticola = test: microbe, parasite or virus in culture; format: cell-based; conditions: 72 h, 3 days at room temperature, read-out: CER percent inhibition of fungal growth
Plasmopara viticola = test: Downy Mildew of Grapes--Curative (GDC); conditions: in vivo
Venturia inaequalis = test: Fungitoxicity assay against Venturia inaequalis (in vitro, microtiter MIC); format: cell-based; conditions: 168 h, minimum inhibitory concentration, 7 days at 25° C.
Description: The compounds of Examples 1-20 were tested in vitro for fungicidal activity and phytotoxicity. A. The compounds were tested in vitro for fungicidal activity against Pythium ultimum, Botrytis cinerea and Venturia inaequalis. Fungitoxicity assay against Venturia inaequalis: Test compounds were dissolved in dimethylsulfoxide at 1 milligram per milliliter (mg/ml), and 50 ul added to 950 ul of yeast extract-dextrose medium (YED, 0.4% yeast extract, 2% dextrose) to give 50 part per million (ppm) solutions. Minimum inhibitory concentration (MIC) values were determined using a microtiter assay with twofold serial dilutions of the prepared 50 ppm solutions (100 ul) in YED medium. Inoculum consisted of a spore suspension of V. inaequalis in YED medium at 2.5×10^5 spores per ml. […] Results of the testing for fungicidal activity against the above named fungi are set forth below in Table 3 as Pythium EC50 (ppm), Botrytis EC50 (ppm) and Venturia MIC (ppm), respectively.

[1] = tested on: Erysiphe graminis (f. sp. tritici); test: Wheat Powdery Mildew (WPM); format: in vivo; conditions: 300 g/Ha; 8 to 10 days after inoculation; Pennol wheat
Description: Wheat Powdery Mildew (WPM) Erysiphe graminis (f. sp. tritici) was cultured on Pennol wheat seedlings in a controlled temperature room at 65° F. to 75° F. Mildew spores were shaken from the culture plants onto Pennol wheat seedlings which had been sprayed previously with the fungicide compound. The inoculated seedlings were kept in a controlled temperature room at 65° F. to 75° F. and subirrigated. […] The fungicidal activity of compound of Example 12 against the above discussed phytopathogenic fungi is set forth in Table 5 as percent disease control at an application rate of 300 g/Ha.

Piricularia oryzae = test: organism not typed; format: cell-based; conditions: 72 h, read-out: PIR percent inhibition of fungal growth
Fusarium roseum = test: microbe, parasite or virus in culture; format: cell-based; conditions: Fusarium sambucinum, 72 h, read-out: FUS percent inhibition of fungal growth
Phytophthora infestans = format: in vivo; conditions: 300 g/Ha; 6 days after inoculation; tomato
[2] = tested on: Colletotrichum lagenarium; test: microbe, parasite or virus in culture; format: cell-based; conditions: Colletotrichum orbiculare, 72 h, 3 days at room temperature, read-out: COL percent inhibition of fungal growth
Phytophthora capsici = test: microbe, parasite or virus in culture; format: cell-based; conditions: 72 h, 3 days at room temperature, read-out: PHY percent inhibition of fungal growth
Pythium ultimum = test: Fungitoxicity assay against Pythium ultimum (in vitro, mycelial dry weight); format: cell-based; conditions: Globisporangium ultimum, 48 hours at 25° C., read-out: Pythium EC50
Description: The compounds of Examples 1-20 were tested in vitro for fungicidal activity and phytotoxicity. A. The compounds were tested in vitro for fungicidal activity against Pythium ultimum, Botrytis cinerea and Venturia inaequalis. Fungitoxicity assay against Pythium ultimum: A dilution series of test compound was prepared in dimethylsulfoxide, and 0.1 milliliter (ml) of each dilution was added to 19.9 ml of a liquid asparagine-sucrose broth ([…]. and Katznelson, K., 1971, Can. J. […] Each plate was inoculated with a mycelial plug, 7 millimeters (mm) in diameter, taken from the growing edge of a culture of Pythium ultimum grown on potato dextrose agar. Two replicate plates were used for each treatment. The increase in mycelial dry weight was determined after growth for 48 hours at 25° C. with shaking on a gyrotary shaker at 60 revolutions per minute (rpm). EC50 values were calculated from dose response curves. As used herein, the terminology "EC50" means the concentration of test compound required to inhibit growth by 50% as compared to a control lacking the test compound. Results of the testing for fungicidal activity against the above named fungi are set forth below in Table 3 as Pythium EC50 (ppm), Botrytis EC50 (ppm) and Venturia MIC (ppm), respectively.

Botrytis cinerea = test: Botrytis Gray Mold on Tomato (BOT); format: in vivo; conditions: 300 g/Ha, 5-7 days
Rhizoctonia solani = test: microbe, parasite or virus in culture; format: cell-based; conditions: 72 h, 3 days at room temperature, read-out: RHI percent inhibition of fungal growth
Monilinia fructicol = test: microbe, parasite or virus in culture; format: cell-based; conditions: 72 h, 3 days at room temperature, read-out: MON percent inhibition of fungal growth
[3] = Tobacco root assay for phytotoxicity (in vitro root elongation); conditions: 7 days, 27° C., read-out: Tob. EC50
Description: The compounds of Examples 1-20 were tested in vitro for fungicidal activity and phytotoxicity.
B. The compounds were tested in vitro for phytotoxicity in a tobacco root elongation assay.
Tobacco root assay for Phytotoxicity:
A dilution series of test compound was prepared in dimethylsulfoxide and 20 ul of each dilution was added to 20 ml of molten nutrient medium, consisting of Murashige and Skoog salt base, 2% sucrose and 1% agar, to give the desired concentrations of test compound. The mixtures were poured immediately into 9 cm diameter petri dishes. Surface-sterilized tobacco seeds were placed on each plate (20 seeds per plate) and the plates incubated in a vertical position in a 27° C. incubator with a 16 hour photoperiod. After 7 days the mean root lengths were calculated, and EC50 values determined from dose response curves.
Results of the tobacco root assay are set forth below in Table 3 as Tob. EC50 (ppm).

In the case of `CCC(C)(NC(=O)c1cc(C)cc(C=NOC)c1)C(=O)CCl` (centres unmarked) [Example 12, N-[3'-(1'-chloro-3'-methyl-2'-oxopentan)]-3-methoxyiminomethyl-5-methylbenzamide], the “phytotoxicity score, Tomato” value (tomato plants) is reported as 0, the “phytotoxicity score, Bean” value (bean plants) is reported as 0 and the “phytotoxicity score, Lettuce” value (lettuce plants) is reported as 0. For the same compound, the inhibition at 25 ppm (Cercospora beticola) was 100%, the “GDC percent disease control” value (Plasmopara viticola) was 50% and the MIC (Venturia inaequalis) was 0.1 µg/mL (≈ 0.308 µM). The “WPM percent disease control” value [1] was 75%, the inhibition at 25 ppm (Piricularia oryzae) was 100% and the inhibition at 25 ppm (Fusarium roseum) was 0%. For the same compound, the “TLB percent disease control” value (Phytophthora infestans) was 100%, the inhibition at 25 ppm [2] was 100% and the inhibition at 25 ppm (Phytophthora capsici) was 100%. For the same compound, the IC50 (Pythium ultimum) was 0.16 µg/mL (≈ 0.493 µM), the “BOT percent disease control” value (Botrytis cinerea) was 100% and the inhibition at 25 ppm (Rhizoctonia solani) was 0%. The inhibition at 25 ppm (Monilinia fructicol) was 100% and the IC50 at 168 h [3] was 0.38 µg/mL (≈ 1.17 µM).
